In patent publication US20250108038A1 (priority 2023, published 2025):
Where “and” joins values, the source holds several entries; their conditions need not be identical. Equal values may be shown once. Entries after “also recorded” stand apart in the source; their conditions may differ. Read-outs that look alike come from different tables or passages of the source.

Tests used:
[1] = Stability of test articles at different pH values (SGF, SIF, PBS); type: physicochemical; details: 0.1 mM, 37° C., 0-120 min
Procedure: FIG. 1A. […] (final concentration 0.1 mM) and the mixture was incubated at 37° C. for 120 min. total. […] Values represent mean+SEM of n=3 separate experiments.
FIG. 1B. Stability of Compound I-4 in 3 different fluid matrices modeling 3 different body fluids: SGF (gastric, pH 2.0), SIF (upper intestinal, pH 6.0), and PBS (systemic fluid, pH 7.4). […] (final concentration 0.1 mM) and the mixture was incubated at 37° C. for 120 min. total. […] Values represent mean+SEM of n=3 separate experiments.
10 mM stock solutions of test articles were prepared in DMSO. From this stock solution, a single concentration in a 10 μL aliquot was added to three fluid matrices: SGF at pH 2.0 (gastric), SIF at pH 6.0 (upper intestine), and PBS at pH 7.4 (systemic fluid). The final volume was 1 mL (0.1 mM).
LC-MS/MS analysis of test articles was performed on a Waters Acquity UPLC system in-line with a Waters TQ-S triple quadrupole mass spectrometer via an electrospray interface.
UPLC separation of samples was performed on a Waters BEH Phenyl 2.1×50 column at 40 C. Mobile phase was 0.1% formic acid in water for mobile phase A and 0.1% formic acid in acetonitrile as mobile phase B. Gradient elution was 1% B initial, 65% B to 95% B at 2 minutes, 95% B at 4 minutes, and 1% B at 4.1 minutes. Flow rate was 0.4 mL/min and 5 μL of samples was injected.

human gut microbiota = assay: Stability in human gut microbiota; details: human fecal matter, 37° C., 0-120 min
Procedure: FIG. 7A. […] Gut microbiota from rat and human sources were extracted and purified in PBS at pH 6.0 or 7.4. A stock solution of 10 mM was prepared and a 10 μL aliquot was added to extracted microorganisms at 0 min. […] Values represent mean+SEM of n=3 separate experiments.
FIG. 7B. […] Gut microbiota from rat and human sources were extracted and purified in PBS at pH 6.0 or 7.4. A stock solution of 10 mM was prepared and a 10 μL aliquot was added to extracted microorganisms at 0 min. […] Values represent mean+SEM of n=3 separate experiments.
Rat fecal material was obtained and weighed. One capsule of the raw probiotics was crushed and weighed prior to use. The weighed samples were then solubilized in PBS at pH 6.0 and 7.4 to extract microorganisms. The samples were centrifuged at 18,000×g for 10 min. to remove particulates and the supernatant was used to evaluate test article stability. An aliquot (50 μL) of the test article stock solutions were added to the fecal extract (final concentration 0.5 mM) and allowed to incubate at 37° C. […] The collected sample was quenched in acetonitrile/0.1% formic acid mixture.

[2] = Procedure: Twelve male Wistar Han rats were divided into 4 groups, n=3 per group.
Dose solutions were prepared freshly on the day of study prior to dosing.
The animals were weighed immediately prior to dosing and the dose volume was calculated individually based the obtained body weight and the nominal dose volume. […] The test articles were administered either orally by gavage, or intraperitoneally by injection. The nominal dose volume was 10 mL/kg for both compounds and both routes.
Cage side observation was performed before and after dosing as well as at each scheduled sample collection. The observation included appearance, posture, behavior, morbidity and mortality. Abnormal findings, if any, were recorded in the study notebook and communicated with study director, veterinarian, and Supernus if necessary.
Approximately 100 μL blood was collected at each scheduled time point from jugular veins. The actual sample collection time was within 1 min. of the nominal time for collections prior to or at 1 hour, and within 5% of the nominal time for collections post 1 hour.
The blood samples were placed in pre-labeled micro-centrifuge tubes containing K2EDTA as anticoagulant and kept on ice, and then were processed to plasma within 30 minutes of collection by centrifugation at 4° C., 3000 g for 5 minutes, and then stored at −70±10° C. until analysis by LC-MS/MS.
Plasma concentrations below the LLOQ prior to Tmax were set to zero, and those after Tmax were excluded from PK calculation. The nominal dose and the nominal sample collection time were used for the calculation. The values of plasma concentrations and PK parameters are reported to three significant figures. The average values of each treatment group are presented as mean±SD.

[3] = single IP Compound I-19 4.061 mg/kg, male Wistar Han rats, individual animals
[4] = single IP Compound I-19 4.061 mg/kg, male Wistar Han rats, mean
[5] = single PO Compound I-19 4.061 mg/kg, male Wistar Han rats, individual animals
[6] = single PO Compound I-19 4.061 mg/kg, male Wistar Han rats, mean

Clc1ccc(C2(OCC3OCCO3)c3ccccc3C3=NCCN32)cc1 (stereo not drawn) [Compound I-19]
Stability (% parent compound remaining) ([1]; PBS (systemic fluid, pH 7.4)): time-dependent decrease in the amount; also recorded: some lack of stability | Stability (% parent compound remaining) ([1]; SGF (gastric, pH 2.0)): time-dependent decrease in the LCMSMS peak area until 20 min; also recorded: some lack of stability over 15 min | % parent compound remaining (human gut microbiota; pH 6, 0.5 mM): no significant change in the amount of parent compound | % parent compound remaining (human gut microbiota; pH 7.4, 0.5 mM): at or above 100% for all time points except 120 min | plasma concentration of Compound I-19 ([2]; 0.500 h, single IP Compound I-19 4.061 mg/kg, male Wistar Han rats, individual animals): 150 ng/mL and 193 ng/mL and 136 ng/mL | plasma concentration of Compound I-19 ([2]; 0.500 h, single IP Compound I-19 4.061 mg/kg, male Wistar Han rats, mean): 160 ng/mL | plasma concentration of Compound I-19 ([2]; 2.00 h, single IP Compound I-19 4.061 mg/kg, male Wistar Han rats, individual animals): 126 ng/mL and 144 ng/mL and 188 ng/mL | plasma concentration of Compound I-19 ([2]; 2.00 h, single IP Compound I-19 4.061 mg/kg, male Wistar Han rats, mean): 153 ng/mL | plasma concentration of Compound I-19 ([2]; 2.00 h, single PO Compound I-19 4.061 mg/kg, male Wistar Han rats, individual animals): BQL | plasma concentration of Compound I-19 ([2]; 4.00 h, single IP Compound I-19 4.061 mg/kg, male Wistar Han rats, individual animals): 73.3 ng/mL and 69.9 ng/mL and 91.6 ng/mL | plasma concentration of Compound I-19 ([2]; 4.00 h, single IP Compound I-19 4.061 mg/kg, male Wistar Han rats, mean): 78.3 ng/mL | plasma concentration of Compound I-19 ([2]; 4.00 h, single PO Compound I-19 4.061 mg/kg, male Wistar Han rats, individual animals): BQL | plasma concentration of Compound I-19 ([2]; 8.00 h, single IP Compound I-19 4.061 mg/kg, male Wistar Han rats, individual animals): 6.11 ng/mL and 10.1 ng/mL and 10.7 ng/mL | plasma concentration of Compound I-19 ([2]; 8.00 h, single IP Compound I-19 4.061 mg/kg, male Wistar Han rats, mean): 8.97 ng/mL | plasma concentration of Compound I-19 ([2]; 8.00 h, single PO Compound I-19 4.061 mg/kg, male Wistar Han rats, individual animals): BQL | plasma concentration of Compound I-19 ([2]; 24.0 h, single IP Compound I-19 4.061 mg/kg, male Wistar Han rats, individual animals): BQL | plasma concentration of Compound I-19 ([2]; 24.0 h, single PO Compound I-19 4.061 mg/kg, male Wistar Han rats, individual animals): BQL | plasma concentration of Compound I-19 ([2]; […] h, single IP Compound I-19 4.061 mg/kg, male Wistar Han rats, mean): 168 ng/mL | Clinical observation (tolerability) ([2]; male Wistar Han rats, PO and IP, administered dosages): well tolerated | T1/2 of the administered compound ([2]; rat, in vivo, ip): 1.43 ± 0.107 h | AUC0-inf of Compound I-19 [2, 3]: 584 ng·h/mL and 660 ng·h/mL and 771 ng·h/mL | AUC0-last of Compound I-19 [2, 3]: 572 ng·h/mL and 637 ng·h/mL and 749 ng·h/mL | Cmax of Compound I-19 [2, 3]: 158 ng/mL and 193 ng/mL and 192 ng/mL | MRT0-inf of Compound I-19 [2, 3]: 2.63 h and 2.73 h and 2.80 h | MRT0-last of Compound I-19 [2, 3]: 2.48 h and 2.47 h and 2.59 h | T1/2 of Compound I-19 [2, 3]: 1.33 h and 1.54 h and 1.43 h | Tlast of Compound I-19 [2, 3]: 8.00 h | Tmax of Compound I-19 [2, 3]: 0.500 h | AUC0-inf of Compound I-19 [2, 4]: 672 ng·h/mL | AUC0-last of Compound I-19 [2, 4]: 653 ng·h/mL | Cmax of Compound I-19 [2, 4]: 181 ng/mL | MRT0-inf of Compound I-19 [2, 4]: 2.72 h | MRT0-last of Compound I-19 [2, 4]: 2.51 h | T1/2 of Compound I-19 [2, 4]: 1.43 h | Tlast of Compound I-19 [2, 4]: 8.00 h | Tmax of Compound I-19 [2, 4]: 0.583 h | AUC0-last of Compound I-19 [2, 5]: 0.510 ng·h/mL and 0.285 ng·h/mL | Cmax of Compound I-19 [2, 5]: 1.02 ng/mL and 1.14 ng/mL | MRT0-last of Compound I-19 [2, 5]: 1.00 h and 0.500 h | Tlast of Compound I-19 [2, 5]: 1.00 h and 0.500 h | Tmax of Compound I-19 [2, 5]: 0.500 h | AUC0-last of Compound I-19 [2, 6]: 0.398 ng·h/mL | Cmax of Compound I-19 [2, 6]: 1.08 ng/mL | MRT0-last of Compound I-19 [2, 6]: 0.750 h | Tlast of Compound I-19 [2, 6]: 0.750 h
